Where a SMILES comes first, the peptide text is derived from it.

Consider 1 molecule from publication PMC6627374, “Effects of the Pentapeptide P33 on Memory and Synaptic Plasticity in APP/PS1 Transgenic Mice: A Novel Mechanism Presenting the Protein Fe65 as a Target” (International Journal of Molecular Sciences, 2019).

For one assay, the system named is human Aβ1–42. Kind of assay: ELISA, soluble Aβ1–42 in HC and CTX. In kind it is in vivo, human Aβ1–42 in APP/PS1 transgenic mice. The conditions noted are these: APP/PS1 mice; 5 mg∙kg^−1 i.p., six months. Here is the method:
(§1) For this study, three-month-old male and female WT and APP/PS1 mice (n = 37) were used. Four groups were defined: WT-vehicle (physiological saline) (male n = 4; female n = 6), WT-P33 (male n = 6; female n = 5), APP/PS1-vehicle (male n = 3; female n = 5), and APP/PS1-P33 (male n = 6; female n = 2). Animals were subjected to intraperitoneal (i.p.) injections of P33 (5 mg∙kg^−1) for five days per week, over a course of six months. The mice were kept in groups under constant temperature (23 ± 0.5 °C), lighting (12-h/12-h light/dark cycle, lights on at 7:00 a.m.), and humidity (~50%). Standard mouse chow and tap water were supplied ad libitum. All behavioral experiments were performed in the light period. Handling was done daily at the same time.
Nine-month-old mice (three animals per group) were euthanized via cervical dislocation. […] To quantify the level of Aβ in the mice, we used a sandwich ELISA Kit (Innotest Amyloid-[…]) from Innogenetics (Gent, Belgium), following the instructions of the manufacturer. The absorbance values were measured at 450 nm on a 96-well plate reader (NOVOstar OPTIMA, BMG Labtech, Offenburg, Germany).
(§2) The results of spine density and immunohistochemistry experiments were calculated with one-way ANOVA followed by Fisher’s LSD post hoc tests. […] Data were analyzed with SPSS (IBM SPSS Statistics 24), and were expressed as the mean ± standard error of the mean (SEM). […]
In general terms: An ELISA detects its analyte on a solid surface through an enzyme-linked reagent.

In a further assay the test system is PSD95. Kind of assay: Western blot, PSD95 level. In kind it is in vivo, mouse. The conditions noted are these: APP/PS1 mice; 5 mg∙kg^−1 i.p., five days per week, six months. Here is the method: as §1, with “Handling was done daily at the same time.” left out
Protein samples, identically prepared as for ELISA, (20 μg/lane) were separated on a 15% SDS-polyacrylamide gel (80 V, 20 min at RT; than 130 V, 60 min at RT) or on a 4–12% NuPAGE® Bis-Tris Gel (Thermo Fischer Scientific, Waltham, MA, USA, 200V, 30 min at RT) and transferred to a nitrocellulose membrane (Whatman, Maidstone, UK, 450 mA, 90 min at 4 °C). […] Membranes were scanned with a Bio-Rad Molecular Imager® ChemiDoc™ XRS+Imaging System (Bio-Rad Laboratories, Hercules, CA, USA) and evaluated with the Image Lab 4.0 software.
The results of spine density and immunohistochemistry experiments were calculated with one-way ANOVA followed by Fisher’s LSD post hoc tests. […]
For orientation: A western blot detects proteins with antibodies after separation by electrophoresis.

The subject of assay [1] is APP/PS1 mice and C57BL/6 wild-type (WT) mice. Kind of assay: Morris water maze (MWM), spatial learning and memory. In kind it is in vivo, mouse. The conditions noted are these: for intersection area with vehicle group (bootstrap 2D contours): vehicle vs P33, 90% contours. The protocol:
as §1
The experiment lasted for five days, and was conducted on every occasion in the light period. Mice were tested twice every day when they were allowed to swim until they found the platform. […] Four different starting points were used during the experiment; starting points were changed randomly during the tests. Trajectories of the mice were recorded with a video camera fixed on the ceiling, equipped with the software EthoVision XT8 (Noldus Information Technology, The Netherlands, 2011). The tracking system calculated the time to reach the platform, swimming speed, length of the swimming path (distance), and percentage time spent in each of the four virtual quadrants during the trials.
Behavioral data were analyzed by mixed ANOVA, followed by Fisher’s LSD post hoc tests for multiple comparisons. The classical and modified ANOVA data evaluation methods applied for the raw measurements could detect only some significant effects without explaining their positions. Convenient post hoc analysis methods, like Student’s t-statistics, need a Gaussian distribution of the analysis data. Additionally, only the probability of the false positive decision error can be set up, and the probability of the false negative decision error remains unknown. Therefore, we developed and used nonparametric statistics. The one-response variable data (swimming times) were used to generate a two-variable model: (1) the reciprocal of the slope of the fitted straight line between the swimming time and the days (its negative values close to zero indicate an improvement in the memory and learning functions of the mice from day to day); (2) swimming time data of the last day (closeness to zero indicates an effective learning process). The two variables were combined, and evaluating them together gave more reliable multiple statistical results. […]

The next assay deals with pT^668-APP. The experiment in a line: Western blot, pT^668-APP level in brain. In kind it is in vivo, mouse. Conditions: 5 mg∙kg^−1 i.p., five days per week, six months; HC and CTX. Here is the method: as §1
(§3) Nine-month-old mice (three animals per group) were euthanized via cervical dislocation. […] To quantify the level of Aβ in the mice, we used a sandwich ELISA Kit (Innotest Amyloid-[…]) from Innogenetics (Gent, Belgium), following the instructions of the manufacturer. The absorbance values were measured at 450 nm on a 96-well plate reader (NOVOstar OPTIMA, BMG Labtech, Offenburg, Germany). […]
as §2

In the next assay the test system is human APP. Kind of assay: Western blot, APP level in brain (6E10). The format is in vivo, human APP in APP/PS1 transgenic mice. Conditions: APP/PS1 mice; 5 mg∙kg^−1 i.p., five days per week, six months; HC and CTX. Here is the method:
as §1, §3, §2

In the case of `C[C@@H](N)C(=O)N1CCC[C@@H]1C(=O)N[C@H](C)C(=O)N1CCC[C@@H]1C(=O)N[C@H](CCC(=O)O)C(N)=O` [P33] (HELM PEPTIDE1{[dA].[dP].[dA].[dP].[dE].[am]}$$$$V2.0), the “soluble Aβ1–42, effect of P33 (in words)” value in the assay with human Aβ1–42 is reported as “decreased level of Aβ1–42 in the APP/PS1 mice”. For the same molecule, the “PSD95 level, effect of P33 (in words)” value with PSD95 is “could be restored by applying P33 on APP/PS1 mice”. In addition, the “permutation test of swimming times vs randomness (in words)” value in assay [1] (APP/PS1-P33, 50,000 resamples, 1/m and yend) is “significant improvement, as the randomness of the measurements was drastically decreased”. Besides, the “intersection area with vehicle group (bootstrap 2D contours)” value in assay [1] (APP/PS1 groups, % of total areas of both, 50,000 resamples) is “approximately 2%”; in assay [1] (WT groups, % of total area of P33 treatment (vehicle 32%), 50,000 resamples), 89%. In assay [1] (APP/PS1 mice, 5 mg∙kg^−1 i.p., six months, MWM five days), the “latency to find the platform, effect of P33 (in words)” value is reported as “seemed to have a positive effect on their learning abilities”. The “pT^668-APP level, effect of P33 (in words)” value with pT^668-APP is listed as “had no significant effect on the pT^668-APP level”. Also, the “APP level, effect of P33 (in words)” value in the assay on human APP is “did not change with the P33-treatment”.
